Data reported in ChEMBL document CHEMBL4304773, “Nitroimidazole-containing compounds and their antibacterial and antitubercular activities” (2019).
≈ marks a conversion by molar mass, not a printed value.

What was measured:
Type in all cases: functional
Pseudomonas aeruginosa [1] = assay: Antibacterial activity against Pseudomonas aeruginosa ATCC 27853
Enterococcus faecalis [2] = assay: Antibacterial activity against Enterococcus faecalis
Escherichia coli [3] = assay: Antibacterial activity against Escherichia coli
Staphylococcus aureus [4] = assay: Antibacterial activity against Staphylococcus aureus ATCC 29213
Klebsiella pneumoniae [5] = assay: Antibacterial activity against Klebsiella pneumoniae
Acinetobacter baumannii = assay: Antibacterial activity against Acinetobacter baumannii
Staphylococcus aureus [6] = assay: Antibacterial activity against methicillin-resistant Staphylococcus aureus N315
Staphylococcus aureus [7] = assay: Antibacterial activity against Staphylococcus aureus ATCC 25923
Escherichia coli [8] = assay: Antibacterial activity against Escherichia coli ATCC 25922
Pseudomonas aeruginosa [9] = assay: Antibacterial activity against Pseudomonas aeruginosa
Escherichia coli [10] = assay: Antibacterial activity against Escherichia coli ATCC 25922 after 24 hrs; details: ATCC 25922, 24 h
Pseudomonas aeruginosa [11] = assay: Antibacterial activity against Pseudomonas aeruginosa after 24 hrs
Staphylococcus aureus [12] = assay: Antibacterial activity against Staphylococcus aureus ATCC 29213 after 24 hrs; details: ATCC 29213, 24 h
Klebsiella pneumoniae [13] = assay: Antibacterial activity against Klebsiella pneumoniae after 24 hrs
Staphylococcus aureus [14] = assay: Antibacterial activity against Staphylococcus aureus ATCC 25923 after 24 hrs; details: ATCC 25923, 24 h
Staphylococcus aureus [15] = assay: Antibacterial activity against methicillin-resistant Staphylococcus aureus after 24 hrs
Enterococcus faecalis [16] = assay: Antibacterial activity against Enterococcus faecalis after 24 hrs
Pseudomonas aeruginosa [17] = assay: Antibacterial activity against Pseudomonas aeruginosa ATCC 27853 after 24 hrs; details: ATCC 27853, 24 h
Staphylococcus aureus [18] = assay: Antibacterial activity against Staphylococcus aureus
Candida albicans = assay: Antifungal activity against Candida albicans
Bacillus subtilis = assay: Antibacterial activity against Bacillus subtilis

SMILES	MIC (Pseudomonas aeruginosa [1]) [µM]	MIC (Enterococcus faecalis [2]) [µM]	MIC (Escherichia coli [3])	MIC (Staphylococcus aureus [4]) [µM]	MIC (Klebsiella pneumoniae [5]) [µM]	MIC (Acinetobacter baumannii) [µM]	MIC (Staphylococcus aureus [6]) [µM]	MIC (Staphylococcus aureus [7]) [µM]	MIC (Escherichia coli [8]) [µM]	MIC (Pseudomonas aeruginosa [9])	MIC (Escherichia coli [10]) [µM]	MIC (Pseudomonas aeruginosa [11]) [µM]	MIC (Staphylococcus aureus [12]) [µM]	MIC (Klebsiella pneumoniae [13]) [µM]	MIC (Staphylococcus aureus [14]) [µM]	MIC (Staphylococcus aureus [15]) [µM]	MIC (Enterococcus faecalis [16]) [µM]	MIC (Pseudomonas aeruginosa [17]) [µM]	further results
CCCCN1CCN(c2ccc3c4c(cccc24)C(=O)N(CC(O)Cn2c([N+](=O)[O-])cnc2C)C3=O)CC1 (configuration not stated)	13 to 1020 (≈ 6.77 to 531 µg/mL)	13 to 1020 (≈ 6.77 to 531 µg/mL)	13 to 1020 µM	13 to 1020 (≈ 6.77 to 531 µg/mL)	13 to 1020 (≈ 6.77 to 531 µg/mL)	13 to 1020 (≈ 6.77 to 531 µg/mL)	13 to 1020 (≈ 6.77 to 531 µg/mL)	13 to 1020 (≈ 6.77 to 531 µg/mL)	13 to 1020 (≈ 6.77 to 531 µg/mL)	13 to 1020 µM									
COc1cc(/C=C(\C#N)n2cc([N+](=O)[O-])nc2C)c2c(c1OCc1ccc([N+](=O)[O-])cc1)CN1CCc3cc4c(cc3C1C2)OCO4 (configuration not stated)											3 to 1020 (≈ 1.91 to 650 µg/mL)	3 to 1020 (≈ 1.91 to 650 µg/mL)	3 to 1020 (≈ 1.91 to 650 µg/mL)	3 to 1020 (≈ 1.91 to 650 µg/mL)	3 to 1020 (≈ 1.91 to 650 µg/mL)	3 to 1020 (≈ 1.91 to 650 µg/mL)	3 to 1020 (≈ 1.91 to 650 µg/mL)	3 to 1020 (≈ 1.91 to 650 µg/mL)	
COc1ccc(C2OC(Cn3c([N+](=O)[O-])cnc3C)=NN2C(C)=O)cc1 (configuration not stated)			0.25 to 0.5 µg/mL							0.25 to 0.5 µg/mL									MIC (Staphylococcus aureus [18]): 0.25 to 0.5 µg/mL (≈ 0.696 to 1.39 µM); MIC (Candida albicans): 0.25 to 0.5 µg/mL (≈ 0.696 to 1.39 µM); MIC (Bacillus subtilis): 0.25 to 0.5 µg/mL (≈ 0.696 to 1.39 µM)
Cc1ncc([N+](=O)[O-])n1CC(O)CN1C(=O)c2cccc3c(N4CCNCC4)ccc(c23)C1=O (configuration not stated)	69 to 1140 (≈ 32 to 530 µg/mL)	69 to 1140 (≈ 32 to 530 µg/mL)	69 to 1140 µM	69 to 1140 (≈ 32 to 530 µg/mL)	69 to 1140 (≈ 32 to 530 µg/mL)	69 to 1140 (≈ 32 to 530 µg/mL)	69 to 1140 (≈ 32 to 530 µg/mL)	69 to 1140 (≈ 32 to 530 µg/mL)	69 to 1140 (≈ 32 to 530 µg/mL)	69 to 1140 µM									
C#CCN1CCN(c2ccc3c4c(cccc24)C(=O)N(CC(O)Cn2c([N+](=O)[O-])cnc2C)C3=O)CC1 (configuration not stated)	13 to 1020 (≈ 6.53 to 513 µg/mL)	13 to 1020 (≈ 6.53 to 513 µg/mL)	13 to 1020 µM	13 to 1020 (≈ 6.53 to 513 µg/mL)	13 to 1020 (≈ 6.53 to 513 µg/mL)	13 to 1020 (≈ 6.53 to 513 µg/mL)	13 to 1020 (≈ 6.53 to 513 µg/mL)	13 to 1020 (≈ 6.53 to 513 µg/mL)	13 to 1020 (≈ 6.53 to 513 µg/mL)	13 to 1020 µM									
CCCCCCCCOc1c(OC)cc(/C=C(\C#N)n2cc([N+](=O)[O-])nc2C)c2c1CN1CCc3cc4c(cc3C1C2)OCO4 (configuration not stated)											3 to 1020 (≈ 1.84 to 627 µg/mL)	3 to 1020 (≈ 1.84 to 627 µg/mL)	3 to 1020 (≈ 1.84 to 627 µg/mL)	3 to 1020 (≈ 1.84 to 627 µg/mL)	3 to 1020 (≈ 1.84 to 627 µg/mL)	3 to 1020 (≈ 1.84 to 627 µg/mL)	3 to 1020 (≈ 1.84 to 627 µg/mL)	3 to 1020 (≈ 1.84 to 627 µg/mL)	
CCCCCCCCCCOc1c(OC)cc(/C=C(\C#N)n2cc([N+](=O)[O-])nc2C)c2c1CN1CCc3cc4c(cc3C1C2)OCO4 (configuration not stated)											3 to 1020 (≈ 1.93 to 655 µg/mL)	3 to 1020 (≈ 1.93 to 655 µg/mL)	3 to 1020 (≈ 1.93 to 655 µg/mL)	3 to 1020 (≈ 1.93 to 655 µg/mL)	3 to 1020 (≈ 1.93 to 655 µg/mL)	3 to 1020 (≈ 1.93 to 655 µg/mL)	3 to 1020 (≈ 1.93 to 655 µg/mL)	3 to 1020 (≈ 1.93 to 655 µg/mL)	
COc1cc(/C=C(\C#N)n2cc([N+](=O)[O-])nc2C)c2c(c1OCc1cccc(Cl)c1)CN1CCc3cc4c(cc3C1C2)OCO4 (configuration not stated)											3 to 1020 (≈ 1.88 to 639 µg/mL)	3 to 1020 (≈ 1.88 to 639 µg/mL)	3 to 1020 (≈ 1.88 to 639 µg/mL)	3 to 1020 (≈ 1.88 to 639 µg/mL)	3 to 1020 (≈ 1.88 to 639 µg/mL)	3 to 1020 (≈ 1.88 to 639 µg/mL)	3 to 1020 (≈ 1.88 to 639 µg/mL)	3 to 1020 (≈ 1.88 to 639 µg/mL)	
